Results: article PMC11708041, “Structural basis of a microbial trimethylamine transporter” (mBio, 2024)

B1: TmaT, TMA transporter of Myroides profundi D25 (natural protein, UniProt A0A0B5RUB0 1-529, looked up)
chain: MFKKLLDNKNLVINPPVFITSILLIVALILTCVLFPEKVGVWFPAAQLAVTSNFGWFFVVTVNVILIFAIYLAFSKFGRIRLGGDDAEPEFTKASWFAMLFSTGMGIGIMFFSIAEPVSHFFNTPRPVDTDIEAAVQAMQFTSLHWGLHAWGIYAMVGLALAFFGFNRKLPMTFRSLFYPFWGERIHGWWGHIIDILSALATVFGLSTSLGLGVIQITAGLEYLYGWEISPMMQAGIILFVIGIATISVFSGLDKGVKILSNANMYIAASFMLLIFILGPTLFIMKGYVENTGAYLANFIDISTWNDTYLGSGWQNVWTIFYWAWWIAWSPFVGSFIARISKGRTVKEFVLGVLIVPGLITLLWMNVFGGSALHTILSGDVTMIAAVKADVSTALFVFLENFPFTKFLSIVAIILIFSFFITSSDSGSLVVDNITSGSNGESPVWQRVFWSFAQGIIAIVLLWGGGLDALQTAVIITGLPFAVILLVMCYSLQKGLKEELAKSSKKAKSKEEKSYKEIIAELLDEPQSK
notes: TmaT, trimethylamine transporter of the betaine-choline-carnitine transporter (BCCT) family, Myroides profundi D25; full-length tmaT, 1,590 nucleotides encoding a 529-amino-acid polypeptide; no removal of the tag is described; Homotrimer in the cryo-EM structures; also called recombinant TmaT; WT TmaT

What was measured:
TmaT = molecular target: T1, TmaT (Myroides profundi, UniProt A0A0B5RUB0); experiment: microscale thermophoresis; format: binding
T1 construct: full-length, 529 residues, C-terminal 8xHis tag (pET-22b), expressed in E. coli C43(DE3), DDM-solubilised; homotrimer
T1 sequence (A0A0B5RUB0 1-529): B1 chain
Excerpt: microscale thermophoresis on TmaT

[1] = molecular target: the molecule itself; experiment: cryo-EM structure; single-particle cryo-EM of purified TmaT (about 8 mg/mL, in DDM); apo TmaT, and with 2 mM or 5 mM TMA; homotrimer

| Molecule | Kd (TmaT) | stoichiometry N [1] |
| --- | --- | --- |
| CN(C)C [TMA] | 49 ± 9.4 µM |  |
| B1 |  | 3 |
